From patent publication EP4722203A1, “3,4-DIHYDROPHTHALAZIN-1(2H)-ONE DERIVATIVE, AND PREPARATION METHOD THEREFOR AND USE THEREOF” (Academy of Military Medical Sciences, priority 2023, dated 2024) come the findings set out here.

One experiment concerns WSU-DLCL-2 cells. Put plainly: Antiproliferative activity, CCK-8 assay. The experiment is classed as cell-based. As to conditions: Homo sapiens, WSUDLCL2; 144 hours incubation, CCK-8, absorbance at 450 nm. The method, then: (§1) The cell models used in this example were human hematologic tumor cells, including NCI-H929, RPMI-8226, MV-4-11, U937 and WSU-DLCL-2. Some of the compounds of the present invention were selected to determine their inhibitory activity against the proliferation of NCI-H929, RPMI-8226, MV-4-11, U937, and WSU-DLCL-2 cells.
(§2) • ① The selected compounds were dissolved in DMSO to prepare 10 mM stock solutions. Compounds used within three months should be stored at room temperature in a desiccator; others could be stored at -20°C for long-term storage. • ② The above stock solutions and the positive reference compound pomalidomide were diluted with DMSO. Their initial concentrations were 10 µM. In the experiments of NCI-H929 and RPMI-8226 cells, 3-fold serial dilution with 11 concentration points was performed, with the lowest concentration of 0.00047 µM. The resulting solutions were shaken on a shaker for 5 minutes.
(§3) • ① The NCI-H929, RPMI-8226, MV-4-11, U937, and WSU-DLCL-2 cells in logarithmic growth phase were inoculated in a 96-well plate, 20,000 to 30,000 cells per well, and the plate was pre-cultured for 24 hours in an incubator (at 37°C and 5% CO2). • ② The culture medium in the plate was replaced, and the compounds and the positive control with corresponding concentrations were added to the plated at a volume of 50 µl. • ③ The plate was incubated for 144 hours in an incubator, then 15 µl of CCK-8 solution was added to each well, and incubated in the incubator for another 1-4 hours. • ④ The absorbance at 450 nm was measured using a microplate reader.
(§4) • ① Calculating % Inhibition: [formula] • ② Calculating IC50 value of compound and plotting dose-response curve: The IC50 value was calculated by fitting the % Inhibition and the logarithm of compound concentration to a nonlinear regression (dose response-variable slope) by using GraphPad 6.0. • Y = Bottom + (Top - Bottom) / (1 + 10^((LogIC50 - X) * HillSlope)) • X: log of inhibitor concentration; Y: % Inhibition.
(§5) After calculating % Inhibition, a dose-response curve was plotted with the logarithm of the test compound concentration as the x-axis and the average cell viability as the y-axis, and the IC50 value was obtained by fitting.
On the technique in general: Tetrazolium dyes change colour on reduction, which living cells bring about.

In another experiment the test system is MV-4-11 cells. As to the kind of experiment: Antiproliferative activity, CCK-8 assay. Format: cell-based. As to conditions: Homo sapiens, MV4-11; 144 hours incubation, CCK-8, absorbance at 450 nm. As to the method: as §1, §2, §3, §4, §5
In a further experiment the test system is NCI-H929 cells. As to the kind of experiment: Antiproliferative activity, CCK-8 assay. The experiment is classed as cell-based. As to conditions: Homo sapiens, 144 hours incubation, CCK-8, absorbance at 450 nm, read-out: IC50 (µM) H-929. The method, then:
as §1, §2, §3, §4, §5

Another experiment relates to U937 cells. Put plainly: Antiproliferative activity, CCK-8 assay. Format: cell-based. As to conditions: Homo sapiens, U-937; 144 hours incubation, CCK-8, absorbance at 450 nm. The method, then:
as §1, §2, §3, §4, §5

Experiment [1] deals with human multiple myeloma RPMI-8226 xenograft tumors. As to the kind of experiment: In vivo activity against RPMI-8226 transplanted tumor. The arrangement: species or system NOD/SCID mice. As to conditions: 10 mg/kg, QD; for Tumor inhibition rate TGI (%) / Volume (mm^3), 0 days / Volume (mm^3), 12 days: oral gavage; for Tumor inhibition rate TGI (%): 12 consecutive days; for Volume (mm^3), 0 days: tumor volume at 0 days (baseline); for Volume (mm^3), 12 days: tumor volume at 12 days. As to the method: In this example, human multiple myeloma RPMI-8226 cell line was used as the cell model. The inhibitory effects of compounds on the growth of NOD/SCID mouse transplanted tumors of RPMI-8226 tumor cells were determined. The evaluation methods and results are described below.
Human multiple myeloma RPMI-8226 cells were routinely cultured in RPMI1640 containing 10% fetal bovine serum at 37°C in a 5% CO2 incubator. After three passages in vitro, when the cells reached over 80% confluence and the required confluence rate, the cells were digested and harvested. After washing with PBS, the cells were counted and the cell concentration was adjusted to approximately 5 × 10^7 cells/mL. The cells were then placed in 4 mL centrifuge tubes on ice for later use.
Female NOD/SCID mice aged 4-5 weeks were selected and subcutaneously inoculated with RPMI-8226 cells ectopically. The mice were held in a lateral position, the forelimb axilla was disinfected with 75% alcohol, and 100 µL of the cell suspension was injected subcutaneously into the axilla using a 1 mL syringe ([…]/100 µL).
Once the tumors grew to 90-150 mm^3, the animals were randomly grouped, 8 mice per group, and administered according to different administration methods as follows: • Model control group: administered with the same volume of Vehicle (DMSO: 0.5% sodium carboxymethyl cellulose: distilled water = 1:1:8) daily by gavage; • Test groups: administered with compound I-4 and compound I-8 solutions at 10 mg/kg (mouse body weight) daily by gavage, respectively; • Positive control group: administered with pomalidomide solution at 10 mg/kg (mouse body weight) daily by gavage.
The route of administration was oral gavage, and the administration frequency was once daily, for 12 consecutive days. The first day of administration was defined as Day 1 of the experiment. Tumor volume changes in mice were measured and recorded every two days. Tumor volume was measured using a vernier caliper, in which the major axis (a) and minor axis (b) of the tumor were measured, and the tumor volume was calculated as: tumor volume V (mm^3) = a x b^2/2. After the experiment, the mice were dissected and the tumor weight was measured. The data were entered and statistically analyzed using GraphPad Prism 6 software. The data are expressed as mean ± SEM (Standard Error of Mean), and one-way ANOVA was used. P ≤ 0.05 was considered statistically significant.

Consider `CN1Cc2c(N)cccc2C(=O)N1C1CCC(=O)NC1=O` (centres unmarked) [I-4, 3-(5-amino-3-methyl-1-oxo-3,4-dihydrophthalazin-2(1H)-yl)piperidin-2,6-dione], for which, in the experiment with WSU-DLCL-2 cells, it took 1.21 µM to reach half-maximal inhibition (IC50). Inhibition in the experiment with MV-4-11 cells was half-maximal at 0.183 µM (IC50). Moreover, the IC50 with NCI-H929 cells came out at 0.116 µM. In the experiment on U937 cells, inhibition was half-maximal at 0.31 µM (IC50). Besides, in experiment [1], the “growth of RPMI-8226 transplanted tumors (in words)” value was “significantly inhibit the growth”; the “Tumor inhibition rate TGI (%)” value was found to be 73.38%; the “Volume (mm^3), 0 days” value stood at 189.0 mm^3; the “Volume (mm^3), 12 days” value came to 541.1 mm^3.

`CN1Cc2c(NCc3ccc(CN4CCN(c5ccc(C#N)c(F)c5)CC4)cc3)cccc2C(=O)N1C1CCC(=O)NC1=O` (centres unmarked) [I-8] registered an IC50 in the experiment on WSU-DLCL-2 cells of 0.017 µM. This compound registered an IC50 with MV-4-11 cells of 0.0058 µM. Besides, the IC50 in the experiment with NCI-H929 cells came to 0.0039 µM. Moreover, the IC50 in the experiment with U937 cells came to 0.0088 µM. In experiment [1], the “growth of RPMI-8226 transplanted tumors (in words)” value is “significantly inhibit the growth”; the “Tumor inhibition rate TGI (%)” value is 80.13%; the “Volume (mm^3), 0 days” value worked out at 257.5 mm^3; the “Volume (mm^3), 12 days” value worked out at 520.3 mm^3.

With `Nc1cccc2c1C(=O)N(C1CCC(=O)NC1=O)C2=O` (centres unmarked) [Pomalidomide, reference compound], the IC50 in the experiment with WSU-DLCL-2 cells was above 10 µM; in the experiment on MV-4-11 cells it was above 10 µM; with NCI-H929 cells, 3.91 µM; in the experiment with U937 cells, 2.53 µM. Besides, the “Tumor inhibition rate TGI (%)” value in experiment [1] was 47.80%. Further, the “Volume (mm^3), 0 days” value in experiment [1] was determined as 180.0 mm^3. Moreover, the “Volume (mm^3), 12 days” value in experiment [1] was determined as 870.4 mm^3.

As usually defined, the IC50 is the concentration that inhibits the measured activity by half.
